Laboratory results from patent publication US20230265116A1, “DEGRADATION OF (EGFR) BY CONJUGATION OF EGFR INHIBITORS WITH E3 LIGASE LIGAND AND METHODS OF USE” (BEIGENE, LTD., priority 2020, published 2023).

What was measured:
[1] = biological target: T1, EGFR L858R/T790M (H1975-clone #36, homozygous) (Homo sapiens, UniProt P00533, L858R/T790M); assay: EGFR degradation HTRF assay, H1975-clone #36 cells; format: cell-based; settings: H1975 #36, 16h treatment; for Dmax: NCI-H1975, maximum percentage of degradation
T1 construct: designed to specifically target WT EGFR but preserve the L858R/T790M copy; host or cells: H1975-clone #36
T1 sequence (P00533 25-1210 T790M/L858R): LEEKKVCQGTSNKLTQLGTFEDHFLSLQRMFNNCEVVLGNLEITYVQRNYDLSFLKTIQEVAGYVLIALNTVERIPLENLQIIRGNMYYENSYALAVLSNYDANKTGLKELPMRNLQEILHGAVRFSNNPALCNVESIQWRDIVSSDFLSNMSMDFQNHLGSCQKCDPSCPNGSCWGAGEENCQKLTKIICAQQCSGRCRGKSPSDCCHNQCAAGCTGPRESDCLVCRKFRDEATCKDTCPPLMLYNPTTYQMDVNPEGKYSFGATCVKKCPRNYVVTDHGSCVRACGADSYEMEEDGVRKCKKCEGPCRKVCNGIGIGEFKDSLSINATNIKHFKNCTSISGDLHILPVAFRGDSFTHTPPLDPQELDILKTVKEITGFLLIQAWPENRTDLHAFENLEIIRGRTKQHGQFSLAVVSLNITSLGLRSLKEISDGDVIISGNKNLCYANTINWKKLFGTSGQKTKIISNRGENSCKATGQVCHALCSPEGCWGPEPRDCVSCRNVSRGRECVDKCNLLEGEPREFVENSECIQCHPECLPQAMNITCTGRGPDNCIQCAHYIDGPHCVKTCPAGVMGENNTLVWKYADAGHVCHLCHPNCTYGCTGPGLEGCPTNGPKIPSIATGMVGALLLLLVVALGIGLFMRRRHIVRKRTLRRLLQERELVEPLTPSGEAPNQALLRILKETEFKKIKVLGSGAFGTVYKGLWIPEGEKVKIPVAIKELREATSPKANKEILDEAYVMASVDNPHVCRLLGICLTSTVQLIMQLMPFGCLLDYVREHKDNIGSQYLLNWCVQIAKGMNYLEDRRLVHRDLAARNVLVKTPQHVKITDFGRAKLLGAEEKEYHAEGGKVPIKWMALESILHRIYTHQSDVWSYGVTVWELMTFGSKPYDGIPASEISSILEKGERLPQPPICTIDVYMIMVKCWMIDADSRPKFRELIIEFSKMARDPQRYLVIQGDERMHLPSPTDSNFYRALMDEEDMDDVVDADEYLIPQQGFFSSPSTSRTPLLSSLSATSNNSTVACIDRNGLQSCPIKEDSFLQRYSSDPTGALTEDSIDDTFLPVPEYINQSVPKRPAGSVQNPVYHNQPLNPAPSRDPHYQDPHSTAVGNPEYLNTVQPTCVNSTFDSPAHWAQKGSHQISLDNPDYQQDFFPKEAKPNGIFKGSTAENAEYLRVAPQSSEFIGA
Experimental: H1975-clone #36(L858R/T790M). H1975 cell heterozygously (from ATCC) contains alleles of WT and L858R/T790M EGFR. H1975-clone #36(L858R/T790M) was generated by gene knockout, in which the EGFR targeting sgRNA was designed to specifically target WT EGFR but preserve the L858R/T790M copy. Followed by the gene knockout, the edited H1975 cells were seeded in 96 well plates at the concentration of 1 cell/well, cultured for about 2 weeks to allow single clones formation. The formed clones were screened by DNA sequencing for the desired edition. H1975-clone #36 was confirmed as a homozygous L858R/T790M EGFR clone.
BaF3 WT(wild type), BaF3-LTC(L858R/T790M/C797S) and BaF3-DTC(Del19/T790M/C797S) cells are treated with compounds diluted in 0.2% DMSO cell culture medium and incubate for 16h, 37° C., 5% CO2, H1975-#36, H1975-#28, H1975-#23 and HCC827 cells are treated with compounds diluted in 0.2% DMSO cell culture medium on day 2, incubate for 16h, 37° C., 5% CO2.the final concentriation of compounds in all assay is start with 10 uM, 5-fold dilution, total 8 doses were included.
After 16h treatment, add HTRF lysis buffer to each well; seal the plate and incubate 1 hour at room temperature on a plate shaker; Once the cells are lysed, 16 μL of cell lysate are transferred to a PE 384-well HTRF detection plate; 4 μL of pre-mixed HTRF antibodies are added to each well; Cover the plate with a plate sealer, spin 1000 rpm for 1 min, Incubate overnight at room temperature; Read on BMG PheraStar with HTRF protocol (337 nm-665 nm-620 nm).
The inhibition (degradation) percentage of the compound was calculated by the following equation: Inhibition percentage of Compound=100-100×(Signal-low control)/(High control-low control), wherein signal=each test compound group
High control=Cell group with added DMSO and without compound, indicating microplate readings without EGFR degradation;
Dmax is the maximum percentage of inhibition (degradation).
The IC50 (DC50) value of a compound can be obtained by fitting the following equation
Y=Bottom+(TOP−Bottom)/(1+((IC50/X)^hillslope))
Wherein, X and Y are known values, and IC50, Hillslope, Top and Bottom are the parameters obtained by fitting with software. Y is the inhibition percentage (calculated from the equation), X is the concentration of the compound; IC50 is the concentration of the compound when the 50% inhibition is reached. The smaller the IC50 value is, the stronger the inhibitory ability of the compound is. Vice versa, the higher the IC50 value is, the weaker the inhibitory ability of the compound is; Hillslope represents the slope of the fitted curve, generally around 1*; Bottom represents the minimum value of the curve obtained by data fitting, which is generally 0%±20%; Top represents the maximum value of the curve obtained by data fitting, which is generally 100%±20%. The experimental data were fitted by calculating and analyzing with Dotmatics data analysis software.

EGFR (HCC827 cells) = biological target: T2, EGFR (HCC827 cells) (Homo sapiens, UniProt P00533, DEL746-750); assay: EGFR degradation HTRF assay, HCC827 cells; format: cell-based; settings: HCC827, 16h treatment; for Dmax: maximum percentage of degradation
T2 construct: endogenous in cells; host or cells: HCC827
T2 sequence (P00533 with tags, fused parts or gaps DEL746-750): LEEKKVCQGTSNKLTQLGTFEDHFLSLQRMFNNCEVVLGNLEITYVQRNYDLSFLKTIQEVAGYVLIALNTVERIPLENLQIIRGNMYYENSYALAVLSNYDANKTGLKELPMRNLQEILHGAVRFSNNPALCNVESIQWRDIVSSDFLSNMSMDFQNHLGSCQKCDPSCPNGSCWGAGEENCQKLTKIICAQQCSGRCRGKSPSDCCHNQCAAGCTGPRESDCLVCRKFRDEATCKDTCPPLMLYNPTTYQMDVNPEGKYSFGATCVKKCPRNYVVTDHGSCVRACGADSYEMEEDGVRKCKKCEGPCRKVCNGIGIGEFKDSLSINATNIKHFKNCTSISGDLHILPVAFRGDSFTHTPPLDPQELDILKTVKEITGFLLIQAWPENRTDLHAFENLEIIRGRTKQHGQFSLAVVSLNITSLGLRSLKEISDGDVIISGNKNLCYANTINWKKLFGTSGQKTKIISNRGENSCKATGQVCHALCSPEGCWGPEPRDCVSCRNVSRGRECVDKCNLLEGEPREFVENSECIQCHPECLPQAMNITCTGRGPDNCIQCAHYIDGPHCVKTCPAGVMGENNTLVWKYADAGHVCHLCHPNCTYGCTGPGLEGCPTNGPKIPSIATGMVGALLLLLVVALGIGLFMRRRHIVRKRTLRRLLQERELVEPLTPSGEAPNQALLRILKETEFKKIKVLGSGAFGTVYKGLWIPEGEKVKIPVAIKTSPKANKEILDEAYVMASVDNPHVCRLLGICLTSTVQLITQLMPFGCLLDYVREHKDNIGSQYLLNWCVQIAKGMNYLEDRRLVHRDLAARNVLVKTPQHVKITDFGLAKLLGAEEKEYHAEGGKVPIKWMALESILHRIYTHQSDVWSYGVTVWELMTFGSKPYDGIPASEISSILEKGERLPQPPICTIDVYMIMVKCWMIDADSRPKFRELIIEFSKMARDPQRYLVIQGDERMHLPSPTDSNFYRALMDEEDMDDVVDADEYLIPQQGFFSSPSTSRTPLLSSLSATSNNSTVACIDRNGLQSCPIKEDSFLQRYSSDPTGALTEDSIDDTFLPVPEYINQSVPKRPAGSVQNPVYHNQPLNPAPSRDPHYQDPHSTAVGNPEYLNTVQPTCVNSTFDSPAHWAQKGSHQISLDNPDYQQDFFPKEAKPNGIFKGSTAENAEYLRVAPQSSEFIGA
Outline: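 Cells treated 16 h at 37 °C, 5% CO2 in medium with 0.2% DMSO; top final concentration 10 uM, 5-fold dilution, 8 doses. Lysates read by HTRF (665/620 nm); degradation % versus DMSO high control, DC50 from four-parameter fit, Dmax as maximal degradation.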

| Compound | DC50 [1] [nM] | Dmax [1] [%] | DC50 (EGFR (HCC827 cells)) [nM] | Dmax (EGFR (HCC827 cells)) [%] |
| --- | --- | --- | --- | --- |
| CCc1cc(Nc2ncc(Br)c(Nc3ccc4nccnc4c3P(C)(C)=O)n2)c(OC)cc1N1CCC(N2CCN(CCOCCC(=O)N[C@H](C(=O)N3C[C@H](O)C[C@H]3C(=O)NCc3ccc(-c4scnc4C)cc3)C(C)(C)C)CC2)CC1 [Example 103, (2S,4R)-1-((S)-2-(3-(2-(4-(1-(4-((5-bromo-4-((5-(dimethylphosphoryl)quinoxalin-6-yl)amino)pyrimidin-2-yl)amino)-2-ethyl-5-methoxyphenyl)piperidin-4-yl)piperazin-1-yl)ethoxy)propanamido)-3,3-dimethylbutanoyl)-4-hydroxy-N-(4-(4-methylthiazol-5-yl)benzyl)pyrrolidine-2-carboxamide] | 43.1 | 79.6 | 28.8 | 84.2 |
| COc1cc(N2CCN(CC3CCN(c4ccc(N5CCC(=O)NC5=O)cc4)CC3)CC2)ccc1Nc1ncc(Cl)c(Nc2ccccc2P(C)(C)=O)n1 [Example 115, 1-(4-(4-((4-(4-((5-chloro-4-((2-(dimethylphosphoryl)phenyl)amino)pyrimidin-2-yl)amino)-3-methoxyphenyl)piperazin-1-yl)methyl)piperidin-1-yl)phenyl)dihydropyrimidine-2,4(1H,3H)-dione] | 641 | 74.7 | 103 | 83.4 |
| COc1cc(N2CCN(CCCC(=O)N[C@H](C(=O)N3C[C@H](O)C[C@H]3C(=O)N[C@@H](C)c3ccc(-c4scnc4C)cc3)C(C)(C)C)CC2)c(C)cc1Nc1ncc(Br)c(Nc2ccc3nccnc3c2P(C)(C)=O)n1 [Example 102, (2S,4R)-1-((S)-2-(4-(4-(4-((5-bromo-4-((5-(dimethylphosphoryl)quinoxalin-6-yl)amino)pyrimidin-2-yl)amino)-5-methoxy-2-methylphenyl)piperazin-1-yl)butanamido)-3,3-dimethylbutanoyl)-4-hydroxy-N—((S)-1-(4-(4-methylthiazol-5-yl)phenyl)ethyl)pyrrolidine-2-carboxamide] | 81.7 | 65.1 | 70.1 | 75.9 |
| COc1cc(N2CCN(CC3CCN(c4ccc(N5CCC(=O)NC5=O)cc4C)CC3)CC2)c(C)cc1Nc1ncc(Br)c(Nc2ccc3nccnc3c2P(C)(C)=O)n1 [Example 98, 1-(4-(4-((4-(4-((5-bromo-4-((5-(dimethylphosphoryl)quinoxalin-6-yl)amino)pyrimidin-2-yl)amino)-5-methoxy-2-methylphenyl)piperazin-1-yl)methyl)piperidin-1-yl)-3-methylphenyl)dihydropyrimidine-2,4(1H,3H)-dione] | > 10000 | 8.3 | 166 | 62.3 |
| COc1cc(N2CCC(N(C)CC3CCN(c4ccc(N5CCC(=O)NC5=O)c(F)c4)CC3)CC2)c(C)cc1Nc1ncc(Br)c(Nc2ccc3nccnc3c2P(C)(C)=O)n1 [Example 81, 1-(4-(4-(((1-(4-((5-bromo-4-((5-(dimethylphosphoryl)quinoxalin-6-yl)amino)pyrimidin-2-yl)amino)-5-methoxy-2-methylphenyl)piperidin-4-yl)(methyl)amino)methyl)piperidin-1-yl)-2-fluorophenyl)dihydropyrimidine-2,4(1H,3H)-dione] | > 10000 | 5.13 | 25.8 | 68.8 |
| COc1cc(N2CCN(CC3CCN(c4ccc(N5CCC(=O)NC5=O)c(F)c4)CC3)CC2)c(C)cc1Nc1ncc(Br)c(Nc2ccc3nccnc3c2P(C)(C)=O)n1 [Example 96, 1-(4-(4-((4-(4-((5-bromo-4-((5-(dimethylphosphoryl)quinoxalin-6-yl)amino)pyrimidin-2-yl)amino)-5-methoxy-2-methylphenyl)piperazin-1-yl)methyl)piperidin-1-yl)-2-fluorophenyl)dihydropyrimidine-2,4(1H,3H)-dione] | > 10000 | 7.3 | 151 | 67 |
| COc1cc(N2CCC(N3CCN(C(=O)C4CCN(CC5CCN(c6ccc7c(c6)C(=O)N(C6CCC(=O)NC6=O)C7=O)CC5)CC4)CC3)CC2)ccc1Nc1ncc(Cl)c(Nc2ccccc2N(C)S(C)(=O)=O)n1 (stereo not drawn) [Example 129, N-(2-((5-chloro-2-((4-(4-(4-(1-((1-(2-(2,6-dioxopiperidin-3-yl)-1,3-dioxoisoindolin-5-yl)piperidin-4-yl)methyl)piperidine-4-carbonyl)piperazin-1-yl)piperidin-1-yl)-2-methoxyphenyl)amino)pyrimidin-4-yl)amino)phenyl)-N-methylmethanesulfonamide] | 9.29 | 85.4 | 11.1 | 87.2 |
| COc1cc(N2CCC(N(C)CC3CCN(c4ccc(N5CCC(=O)NC5=O)cc4)CC3)CC2)c(C)cc1Nc1ncc(Br)c(Nc2ccc3nccnc3c2P(C)(C)=O)n1 [Example 79, 1-(4-(4-(((1-(4-((5-bromo-4-((5-(dimethylphosphoryl)quinoxalin-6-yl)amino)pyrimidin-2-yl)amino)-5-methoxy-2-methylphenyl)piperidin-4-yl)(methyl)amino)methyl)piperidin-1-yl)phenyl)dihydropyrimidine-2,4(1H,3H)-dione] | > 10000 | 18.6 | 17.5 | 72.1 |

Now those with a lower DC50 [1], led by results:

| DC50 [1] [nM] | Dmax [1] [%] | DC50 (EGFR (HCC827 cells)) [nM] | Dmax (EGFR (HCC827 cells)) [%] | Compound |
| --- | --- | --- | --- | --- |
| 3.58 | 87 | 15.1 | 82.2 | COc1cc(N2CCC(N3CCN(CCc4ccc(C5CCC(=O)NC5=O)cc4)CC3)CC2)ccc1Nc1ncc(Cl)c(Nc2ccccc2NS(C)(=O)=O)n1 (stereo not drawn) [Example 138, N-(2-((5-chloro-2-((4-(4-(4-(4-(2,6-dioxopiperidin-3-yl)phenethyl)piperazin-1-yl)piperidin-1-yl)-2-methoxyphenyl)amino)pyrimidin-4-yl)amino)phenyl)methanesulfonamide] |
| 3.54 | 54.5 | 21.9 | 68.7 | COc1cc(N2CCN(CC3CCN(c4ccc(C5CCC(=O)NC5=O)cc4)CC3)CC2)c(C)cc1Nc1ncc(Br)c(Nc2ccc3nccnc3c2P(C)(C)=O)n1 (stereo not drawn) [Example 88, 3-(4-(4-((4-(4-((5-bromo-4-((5-(dimethylphosphoryl)quinoxalin-6-yl)amino)pyrimidin-2-yl)amino)-5-methoxy-2-methylphenyl)piperazin-1-yl)methyl)piperidin-1-yl)phenyl)piperidine-2,6-dione] |
| 7.44 | 75.4 | 11.1 | 83.6 | CCc1cc(Nc2ncc(Br)c(Nc3ccc4nccnc4c3P(C)(C)=O)n2)c(OC)cc1N1CCC(N2CCN(CCc3ccc(C4CCC(=O)NC4=O)c(Cl)c3)CC2)CC1 (stereo not drawn) [Example 4, 3-(4-(2-(4-(1-(4-((5-bromo-4-((5-(dimethylphosphoryl)quinoxalin-6-yl)amino)pyrimidin-2-yl)amino)-2-ethyl-5-methoxyphenyl)piperidin-4-yl)piperazin-1-yl)ethyl)-2-chlorophenyl)piperidine-2,6-dione] |
| 6.63 | 62 | 17.9 | 75.4 | COc1cc(N2CCN(C3CN(C(=O)c4cnc(C(=O)Nc5ccc(C6CCC(=O)NC6=O)cc5)cn4)C3)CC2)ccc1Nc1ncc(Cl)c(Nc2ccccc2P(C)(C)=O)n1 (stereo not drawn) [Example 116, 5-(3-(4-(4-((5-chloro-4-((2-(dimethylphosphoryl)phenyl)amino)pyrimidin-2-yl)amino)-3-methoxyphenyl)piperazin-1-yl)azetidine-1-carbonyl)-N-(4-(2,6-dioxopiperidin-3-yl)phenyl)pyrazine-2-carboxamide] |
